Results from ChEMBL document CHEMBL1153013, “Bio-active compounds from Euphorbia cornigera Boiss” (2009).
In brackets after ≈: the same amount, converted by molar mass.

Tested on: Biomphalaria glabrata
Experiment: Molluscicidal activity against Biomphalaria glabrata after 24 hrs
Format: functional

| Compound | LC50 |
| --- | --- |
| C/C=C(\C)C(=O)O[C@@H]1C(COC(=O)c2ccccc2NC(=O)c2ccccc2N)=C[C@@H]2C(=O)[C@]3(C=C(C)[C@H](OC(C)=O)[C@@]13O)[C@H](C)C[C@@H]1[C@H]2C1(C)C | 0.0155 µg/mL (≈ 0.0218 µM) |
| CC(=O)OCC1=C[C@@H]2C(=O)[C@]3(C=C(C)[C@H](OC(C)=O)[C@@]3(O)[C@@H]1OC(=O)c1ccccc1NC(=O)c1ccccc1N)[C@H](C)C[C@@H]1[C@H]2C1(C)C | 0.0183 µg/mL (≈ 0.0273 µM) |
| C/C=C(\C)C(=O)OCC1=C[C@@H]2C(=O)[C@]3(C=C(C)[C@H](OC(C)=O)[C@@]3(O)[C@@H]1OC(=O)c1ccccc1NC(=O)c1ccccc1N)[C@H](C)C[C@@H]1[C@H]2C1(C)C | 0.0145 µg/mL (≈ 0.0204 µM) |
| O=C(Nc1ccc([N+](=O)[O-])cc1Cl)c1cc(Cl)ccc1O [NICLOSAMIDE] | 0.025 µg/mL (≈ 0.0764 µM) |
| C/C=C(\C)C(=O)O[C@H]1C(C)=C[C@]23C(=O)[C@@H](C=C(COC(C)=O)[C@@H](OC(=O)c4ccccc4NC(=O)c4ccccc4N)[C@]12O)[C@H]1[C@@H](C[C@H]3C)C1(C)C | 0.0754 µg/mL (≈ 0.106 µM) |
| CC(=O)O[C@H]1C(C)=C[C@]23C(=O)[C@@H](C=C(COC(=O)c4ccccc4NC(=O)c4ccccc4N)[C@@H](O)[C@]12O)[C@H]1[C@@H](C[C@H]3C)C1(C)C | 0.0192 µg/mL (≈ 0.0305 µM) |
| CC(=O)OCC1=C[C@@H]2C(=O)[C@]3(C=C(C)[C@H](OC(=O)c4ccccc4NC(=O)c4ccccc4N)[C@@]3(O)[C@@H]1OC(C)=O)[C@H](C)C[C@@H]1[C@H]2C1(C)C | 0.0114 µg/mL (≈ 0.017 µM) |
| C/C=C(\C)C(=O)O[C@@H]1C(COC(C)=O)=C[C@@H]2C(=O)[C@]3(C=C(C)[C@H](OC(=O)c4ccccc4NC(=O)c4ccccc4N)[C@@]13O)[C@H](C)C[C@@H]1[C@H]2C1(C)C | 0.0135 µg/mL (≈ 0.019 µM) |
| C/C=C(\C)C(=O)OCC1=C[C@@H]2C(=O)[C@]3(C=C(C)[C@H](OC(=O)c4ccccc4NC(=O)c4ccccc4N)[C@@]3(O)[C@@H]1OC(C)=O)[C@H](C)C[C@@H]1[C@H]2C1(C)C | 0.0125 µg/mL (≈ 0.0176 µM) |
| CC(=O)OCC1=C[C@@H]2C(=O)[C@]3(C=C(C)[C@H](OC(=O)c4ccccc4NC(=O)c4ccccc4N)[C@@]3(O)[C@@H]1O)[C@H](C)C[C@@H]1[C@H]2C1(C)C | 0.0143 µg/mL (≈ 0.0227 µM) |
| C/C=C(\C)C(=O)O[C@H]1C(C)=C[C@]23C(=O)[C@@H](C=C(COC(=O)c4ccccc4NC(=O)c4ccccc4N)[C@@H](OC(C)=O)[C@]12O)[C@H]1[C@@H](C[C@H]3C)C1(C)C | 0.0615 µg/mL (≈ 0.0865 µM) |
